What was measured:
Type in all cases: functional
Conditions in all cases: at 10 µM
SW-620 = experiment: Growth inhibition of human SW620 cells after 48 hrs by cell counting analysis
SR = experiment: Growth inhibition of human SR cells after 48 hrs by cell counting analysis
MDA-MB-231 = experiment: Growth inhibition of human MDA-MB-231 cells after 48 hrs by cell counting analysis
EKVX = experiment: Growth inhibition of human EKVX cells after 48 hrs by cell counting analysis
BT-549 = experiment: Growth inhibition of human BT549 cells after 48 hrs by cell counting analysis
MDA-MB-435 = experiment: Growth inhibition of human MDA-MB-435 cells after 48 hrs by cell counting analysis
SNB-75 = experiment: Growth inhibition of human SNB75 cells after 48 hrs by cell counting analysis
HOP-92 = experiment: Growth inhibition of human HOP92 cells after 48 hrs by cell counting analysis
SK-MEL-5 = experiment: Growth inhibition of human SK-MEL-5 cells after 48 hrs by cell counting analysis
HCT-116 = experiment: Growth inhibition of human HCT116 cells after 48 hrs by cell counting analysis
NCI-H226 = experiment: Growth inhibition of human NCI-H226 cells after 48 hrs by cell counting analysis
HL-60 = experiment: Growth inhibition of human HL60 cells after 48 hrs by cell counting analysis
[1] = Growth inhibition of human NCI-ADR-RES cells after 48 hrs by cell counting analysis
SK-OV-3 = experiment: Growth inhibition of human SKOV3 cells after 48 hrs by cell counting analysis
SNB-19 = experiment: Growth inhibition of human SNB19 cells after 48 hrs by cell counting analysis
RPMI-8226 = experiment: Growth inhibition of human RPMI8226 cells after 48 hrs by cell counting analysis
HCC 2998 = experiment: Growth inhibition of human HCC2998 cells after 48 hrs by cell counting analysis
T47D = experiment: Growth inhibition of human T47D cells after 48 hrs by cell counting analysis
OVCAR-3 = experiment: Growth inhibition of human OVCAR3 cells after 48 hrs by cell counting analysis
U-251 = experiment: Growth inhibition of human U251 cells after 48 hrs by cell counting analysis
HT-29 = experiment: Growth inhibition of human HT-29 cells after 48 hrs by cell counting analysis
HCT-15 = experiment: Growth inhibition of human HCT15 cells after 48 hrs by cell counting analysis
SF-268 = experiment: Growth inhibition of human SF268 cells after 48 hrs by cell counting analysis
ACHN = experiment: Growth inhibition of human ACHN cells after 48 hrs by cell counting analysis
UACC-62 = experiment: Growth inhibition of human UACC62 cells after 48 hrs by cell counting analysis
SK-MEL-2 = experiment: Growth inhibition of human SK-MEL-2 cells after 48 hrs by cell counting analysis
UACC-257 = experiment: Growth inhibition of human UACC257 cells after 48 hrs by cell counting analysis
PC-3 = experiment: Growth inhibition of human PC3 cells after 48 hrs by cell counting analysis
SN12C = experiment: Growth inhibition of human SN12C cells after 48 hrs by cell counting analysis
M14 = experiment: Growth inhibition of human M14 cells after 48 hrs by cell counting analysis
OVCAR-4 = experiment: Growth inhibition of human OVCAR4 cells after 48 hrs by cell counting analysis
MOLT-4 = experiment: Growth inhibition of human MOLT4 cells after 48 hrs by cell counting analysis
CCRF-CEM = experiment: Growth inhibition of human CCRF-CEM cells after 48 hrs by cell counting analysis
LOX IMVI = experiment: Growth inhibition of human LOXIMVI cells after 48 hrs by cell counting analysis
CAKI-1 = experiment: Growth inhibition of human Caki1 cells after 48 hrs by cell counting analysis
IGROV-1 = experiment: Growth inhibition of human IGROV1 cells after 48 hrs by cell counting analysis
MCF7 = experiment: Growth inhibition of human MCF7 cells after 48 hrs by cell counting analysis
OVCAR-5 = experiment: Growth inhibition of human OVCAR5 cells after 48 hrs by cell counting analysis
HOP-62 = experiment: Growth inhibition of human HOP62 cells after 48 hrs by cell counting analysis
NCI-H522 = experiment: Growth inhibition of human NCI-H522 cells after 48 hrs by cell counting analysis
[2] = Growth inhibition of human NCI-322M cells after 48 hrs by cell counting analysis
SF-539 = experiment: Growth inhibition of human SF539 cells after 48 hrs by cell counting analysis
SK-MEL-28 = experiment: Growth inhibition of human SK-MEL-28 cells after 48 hrs by cell counting analysis
K562 = experiment: Growth inhibition of human K562 cells after 48 hrs by cell counting analysis
MDA-MB-468 = experiment: Growth inhibition of human MDA-MB-468 cells after 48 hrs by cell counting analysis
UO-31 = experiment: Growth inhibition of human UO31 cells after 48 hrs by cell counting analysis
SF-295 = experiment: Growth inhibition of human SF295 cells after 48 hrs by cell counting analysis
OVCAR-8 = experiment: Growth inhibition of human OVCAR8 cells after 48 hrs by cell counting analysis
RXF 393 = experiment: Growth inhibition of human RXF393 cells after 48 hrs by cell counting analysis
A549 = experiment: Growth inhibition of human A549 cells after 48 hrs by cell counting analysis
Malme-3M = experiment: Growth inhibition of human MALME-3M cells after 48 hrs by cell counting analysis
KM12 = experiment: Growth inhibition of human KM12 cells after 48 hrs by cell counting analysis
NCI-H23 = experiment: Growth inhibition of human NCI-H23 cells after 48 hrs by cell counting analysis
TK-10 = experiment: Growth inhibition of human TK10 cells after 48 hrs by cell counting analysis

Cc1ccc(-c2csc(NC(=O)CN3CCN(c4ccccc4)CC3)n2)cc1
growth inhibition (GI) (SW-620): <10%
growth inhibition (GI) (SR): <10%
growth inhibition (GI) (MDA-MB-231): <10%
growth inhibition (GI) (EKVX): 32.5%
growth inhibition (GI) (BT-549): <10%
growth inhibition (GI) (MDA-MB-435): 17.6%
growth inhibition (GI) (SNB-75): 12.1%
growth inhibition (GI) (HOP-92): <10%
growth inhibition (GI) (SK-MEL-5): 27.6%
growth inhibition (GI) (HCT-116): <10%
growth inhibition (GI) (NCI-H226): <10%
growth inhibition (GI) (HL-60): <10%
growth inhibition (GI) [1]: 21%
growth inhibition (GI) (SK-OV-3): <10%
growth inhibition (GI) (SNB-19): <10%
growth inhibition (GI) (RPMI-8226): <10%
growth inhibition (GI) (HCC 2998): 15.2%
growth inhibition (GI) (T47D): 20.8%
growth inhibition (GI) (OVCAR-3): <10%
growth inhibition (GI) (U-251): <10%
growth inhibition (GI) (HT-29): <10%
growth inhibition (GI) (HCT-15): 10.6%
growth inhibition (GI) (SF-268): 13.9%
growth inhibition (GI) (ACHN): <10%
growth inhibition (GI) (UACC-62): 23.6%
growth inhibition (GI) (SK-MEL-2): <10%
growth inhibition (GI) (UACC-257): <10%
growth inhibition (GI) (PC-3): 31.1%
growth inhibition (GI) (SN12C): 17%
growth inhibition (GI) (M14): <10%
growth inhibition (GI) (OVCAR-4): 28.1%
growth inhibition (GI) (MOLT-4): 23.7%
growth inhibition (GI) (CCRF-CEM): 13.4%
growth inhibition (GI) (LOX IMVI): 17.2%
growth inhibition (GI) (CAKI-1): 24.6%
growth inhibition (GI) (IGROV-1): 33.8%
growth inhibition (GI) (MCF7): 20.9%
growth inhibition (GI) (OVCAR-5): <10%
growth inhibition (GI) (HOP-62): <10%
growth inhibition (GI) (NCI-H522): <10%
growth inhibition (GI) [2]: 21.4%
growth inhibition (GI) (SF-539): <10%
growth inhibition (GI) (SK-MEL-28): <10%
growth inhibition (GI) (K562): <10%
growth inhibition (GI) (MDA-MB-468): 23.1%
growth inhibition (GI) (UO-31): 48.2%
growth inhibition (GI) (SF-295): 27.3%
growth inhibition (GI) (OVCAR-8): <10%
growth inhibition (GI) (RXF 393): <10%
growth inhibition (GI) (A549): 31.4%
growth inhibition (GI) (Malme-3M): <10%
growth inhibition (GI) (KM12): <10%
growth inhibition (GI) (NCI-H23): 18.9%
growth inhibition (GI) (TK-10): <10%

Cc1ccc(-c2csc(NC(=O)CCN3CCN(c4ccccc4)CC3)n2)cc1
growth inhibition (GI) (SW-620): <10%
growth inhibition (GI) (SR): <10%
growth inhibition (GI) (MDA-MB-231): <10%
growth inhibition (GI) (EKVX): 16.6%
growth inhibition (GI) (BT-549): <10%
growth inhibition (GI) (MDA-MB-435): <10%
growth inhibition (GI) (SNB-75): <10%
growth inhibition (GI) (HOP-92): 10.2%
growth inhibition (GI) (SK-MEL-5): <10%
growth inhibition (GI) (HCT-116): <10%
growth inhibition (GI) (NCI-H226): <10%
growth inhibition (GI) (HL-60): <10%
growth inhibition (GI) [1]: <10%
growth inhibition (GI) (SK-OV-3): <10%
growth inhibition (GI) (SNB-19): <10%
growth inhibition (GI) (RPMI-8226): <10%
growth inhibition (GI) (HCC 2998): <10%
growth inhibition (GI) (T47D): <10%
growth inhibition (GI) (OVCAR-3): <10%
growth inhibition (GI) (U-251): <10%
growth inhibition (GI) (HT-29): <10%
growth inhibition (GI) (HCT-15): <10%
growth inhibition (GI) (SF-268): <10%
growth inhibition (GI) (ACHN): <10%
growth inhibition (GI) (UACC-62): 16.3%
growth inhibition (GI) (SK-MEL-2): <10%
growth inhibition (GI) (UACC-257): <10%
growth inhibition (GI) (PC-3): 16.1%
growth inhibition (GI) (SN12C): <10%
growth inhibition (GI) (M14): <10%
growth inhibition (GI) (OVCAR-4): 11.1%
growth inhibition (GI) (MOLT-4): 14.9%
growth inhibition (GI) (CCRF-CEM): <10%
growth inhibition (GI) (LOX IMVI): <10%
growth inhibition (GI) (CAKI-1): 14.1%
growth inhibition (GI) (IGROV-1): 14.9%
growth inhibition (GI) (MCF7): <10%
growth inhibition (GI) (OVCAR-5): <10%
growth inhibition (GI) (HOP-62): <10%
growth inhibition (GI) (NCI-H522): <10%
growth inhibition (GI) [2]: 15.6%
growth inhibition (GI) (SF-539): <10%
growth inhibition (GI) (SK-MEL-28): <10%
growth inhibition (GI) (K562): <10%
growth inhibition (GI) (MDA-MB-468): <10%
growth inhibition (GI) (UO-31): 41.2%
growth inhibition (GI) (SF-295): <10%
growth inhibition (GI) (OVCAR-8): <10%
growth inhibition (GI) (RXF 393): <10%
growth inhibition (GI) (A549): 23.8%
growth inhibition (GI) (Malme-3M): 12.1%
growth inhibition (GI) (KM12): <10%
growth inhibition (GI) (NCI-H23): 14.5%
growth inhibition (GI) (TK-10): <10%

CN1CCN(CCC(=O)Nc2nc(-c3ccc(Br)cc3)cs2)CC1
growth inhibition (GI) (SW-620): <10%
growth inhibition (GI) (SR): <10%
growth inhibition (GI) (MDA-MB-231): 64.3%
growth inhibition (GI) (EKVX): 10.8%
growth inhibition (GI) (BT-549): 32.5%
growth inhibition (GI) (MDA-MB-435): 50.6%
growth inhibition (GI) (SNB-75): 47.9%
growth inhibition (GI) (HOP-92): 42.7%
growth inhibition (GI) (SK-MEL-5): 76.2%
growth inhibition (GI) (HCT-116): 42.5%
growth inhibition (GI) (NCI-H226): 19.1%
growth inhibition (GI) (HL-60): 37.7%
growth inhibition (GI) [1]: 22.9%
growth inhibition (GI) (SK-OV-3): <10%
growth inhibition (GI) (SNB-19): 20.9%
growth inhibition (GI) (RPMI-8226): 30.5%
growth inhibition (GI) (HCC 2998): <10%
growth inhibition (GI) (T47D): 34.9%
growth inhibition (GI) (OVCAR-3): <10%
growth inhibition (GI) (U-251): 33.6%
growth inhibition (GI) (HT-29): 80.4%
growth inhibition (GI) (HCT-15): 42.6%
growth inhibition (GI) (SF-268): 12.8%
growth inhibition (GI) (ACHN): 15.9%
growth inhibition (GI) (UACC-62): 71.6%
growth inhibition (GI) (SK-MEL-2): <10%
growth inhibition (GI) (UACC-257): 36.4%
growth inhibition (GI) (PC-3): 24.6%
growth inhibition (GI) (SN12C): 31.9%
growth inhibition (GI) (M14): 33.7%
growth inhibition (GI) (OVCAR-4): <10%
growth inhibition (GI) (MOLT-4): 38.1%
growth inhibition (GI) (CCRF-CEM): 24.9%
growth inhibition (GI) (LOX IMVI): 31.8%
growth inhibition (GI) (CAKI-1): 30.2%
growth inhibition (GI) (IGROV-1): 20.4%
growth inhibition (GI) (MCF7): 28.8%
growth inhibition (GI) (OVCAR-5): 15.6%
growth inhibition (GI) (HOP-62): 25%
growth inhibition (GI) (NCI-H522): 28.5%
growth inhibition (GI) [2]: 17.2%
growth inhibition (GI) (SF-539): 31.4%
growth inhibition (GI) (SK-MEL-28): 23.4%
growth inhibition (GI) (K562): 52.4%
growth inhibition (GI) (MDA-MB-468): 48.7%
growth inhibition (GI) (UO-31): 50.8%
growth inhibition (GI) (SF-295): 14.4%
growth inhibition (GI) (OVCAR-8): <10%
growth inhibition (GI) (RXF 393): 38.1%
growth inhibition (GI) (A549): 22.2%
growth inhibition (GI) (Malme-3M): 24.6%
growth inhibition (GI) (KM12): <10%
growth inhibition (GI) (NCI-H23): 26%
growth inhibition (GI) (TK-10): 22.5%

Reference: ChEMBL document CHEMBL2150993, “Substituted thiazoles VII. Synthesis and antitumor activity of certain 2-(substituted amino)-4-phenyl-1,3-thiazole analogs” (2012)
